Laboratory results published in patent publication US20100197789A1, “ANTI-OBESITY AGENT AND USE THEREOF” (National University Corporation Nagoya University, priority 2006, published 2010).

How the values were obtained:
UCP1 mRNA = test: Real time PCR, UCP1 mRNA in brown adipose tissues, db/db mice; type: in vivo, mouse; details: after 5 week-administration, 1.1 and 2.7 mg/dl in drinking water
Experimental: 5 week-old male C57BL/KsJ-db/db mice (db/db mice: body weight 19 to 25 g, Japan SLC, Inc.) were purchased and individually fed in tip cages. For the db/db mice, normal pellet diet (CE-2) was administered under free water intake and free food intake. A body weight and a food intake amount over 24 hours were measured every day from the start of feeding. On day 3 after the start of feeding, blood was taken from an orbit after 6 hour-fasting and a blood glucose level and a blood insulin concentration were measured. […] A food intake amount and a body weight were measured over time during the period of 5 week-administration of (±)-baclofen, blood was taken after the end of the 5-week administration, and the db/db mice were sacrificed by cervical luxation. […] The epididymal white adipose tissues and subcutaneous white adipose tissues were measured in weights, and then fixed in 4% formaldehyde and preserved at 4° C.
RNA was taken out from the brown adipose tissues preserved at −80° C., and expression of a UCP-1 mRNA was examined in the real time quantitative […] method by using ABI PRISM (registered trademark) 7700 Sequence Detection System.

db/db mice = test: Rectal temperature, oxygen consumption and motor activity, db/db mice; type: in vivo, mouse
Experimental: 5 week-old male C57BL/KsJ-db/db mice (db/db mice: body weight 19 to 25 g, Japan SLC, Inc.) were purchased and individually fed in tip cages. For the db/db mice, normal pellet diet (CE-2) was administered under free water intake and free food intake. A body weight and a food intake amount over 24 hours were measured everyday from the start of feeding. On day 3 after the start of feeding, blood was taken from an orbit after 6 hour-fasting and a blood glucose level and a blood insulin concentration were measured. The db/db mice were divided into three groups (10 mice per each group) so that a body weight, a 24 hour-food intake amount, a blood glucose level, and a blood insulin concentration were equal, and defined to be a control group, an R-baclofen treated group, and an S-baclofen treated group. […] After division into the groups, from day 5 after the start of feeding, R-baclofen and S-baclofen were dissolved in drinking water and 5 week-continuous oral administration was started. Both of R-baclofen and S-baclofen were dissolved in drinking water at a concentration of 1.1 mg/dl used in the low concentration treated group in the experiment of baclofen racemic mixture administration. A food intake amount and a body weight were measured over time, and a rectal temperature was measured 5 weeks after the start of the administration. Blood was taken after the 5-week administration of baclofen, and the db/db mice were sacrificed by cervical luxation.
R-baclofen and S-baclofen were administered to db/db/mice and (±)-baclofen was administered to db/^+m mice respectively for 5 weeks, and rectal temperatures were then continuously measured for 3 days at 20 o'clock immediately before the dark period when feed intake was started in the mice. The method of measuring rectal temperatures was as follows. That is, the rectal temperatures were measured by using a digital thermistor (manufactured by NATSUME SEISAKUSHO CO., LTD.).
(±)-baclofen was orally administered to db/db mice and DIO mice for 5 weeks and rectal temperatures were measured 5 weeks after the start of the administration, and oxygen consumptions and motor activity were measured by using a small animal metabolism measuring system (model MK-5000: Muromachi Kikai Co., Ltd.).

SMILES: NCC(CC(=O)O)c1ccc(Cl)cc1 (racemic) [(±)-baclofen, (RS)-4-amino-3-(4-chlorophenyl)butanoic acid]
- UCP1 mRNA expression in brown adipose tissues (UCP1 mRNA): Significant increases
- oxygen consumption (db/db mice; (±)-baclofen oral 5 weeks): significantly increased
- body temperature (rectal) (db/db mice; (±)-baclofen oral, 5 weeks after start of administration): significantly raised
